Results as given in patent US20050113315A1, “Glucopyranosyloxybenzylbenzene derivatives, medicinal compositions containing the same and intermediates in the production thereof” (KISSEI PHARMACEUTICAL CO., LTD., priority 2000, published 2005).

Columns and labels:
[1] = target: T1, human SGLT2 (Homo sapiens, UniProt P31639, I433V); assay: Assay for inhibitory effect on human SGLT2 activity (uptake of methyl-α-D-glucopyranoside in COS-7 cells transiently expressing human SGLT2); assay type: cell-based; settings: uptake of methyl-α-D-(U-14C)-glucopyranoside, 37° C., 2 hours
T1 construct: expressed in transfected cells; host or cells: COS-7 cells (RIKEN CELL BANK RCB0539), transient electroporation with KL29
T1 sequence (P31639 1-672 I433V): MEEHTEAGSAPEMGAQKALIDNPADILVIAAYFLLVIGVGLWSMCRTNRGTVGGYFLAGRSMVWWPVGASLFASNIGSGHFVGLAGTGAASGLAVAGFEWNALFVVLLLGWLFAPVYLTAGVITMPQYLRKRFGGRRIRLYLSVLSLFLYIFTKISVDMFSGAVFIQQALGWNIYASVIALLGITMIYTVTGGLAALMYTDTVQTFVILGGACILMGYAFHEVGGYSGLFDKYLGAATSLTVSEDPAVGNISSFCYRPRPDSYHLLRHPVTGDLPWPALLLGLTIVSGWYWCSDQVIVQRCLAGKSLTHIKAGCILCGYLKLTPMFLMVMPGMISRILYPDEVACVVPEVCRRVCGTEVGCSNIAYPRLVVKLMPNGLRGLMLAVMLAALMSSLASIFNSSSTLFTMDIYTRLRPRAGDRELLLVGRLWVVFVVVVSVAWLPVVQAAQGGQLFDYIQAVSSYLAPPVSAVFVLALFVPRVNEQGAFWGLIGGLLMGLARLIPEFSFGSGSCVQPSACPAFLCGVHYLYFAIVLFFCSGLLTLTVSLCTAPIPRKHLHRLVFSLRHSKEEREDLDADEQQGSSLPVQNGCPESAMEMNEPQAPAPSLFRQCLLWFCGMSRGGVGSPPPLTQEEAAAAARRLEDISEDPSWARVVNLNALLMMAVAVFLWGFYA
Method: Assay for Inhibitory Effect on Human SGLT2 Activity
1) Construction of the Plasmid Vector Expressing Human SGLT2
Preparation of the cDNA library for PCR amplification was performed by reverse transcription of a total RNA deprived from human kidney (Ori gene) with oligo dT as the primer, using […] Preamplification System (Gibco-BRL: LIFE TECHNOLOGIES). The DNA fragment coding for human SGLT2 was amplified by the PCR reaction, in which the human kidney cDNA library described above was used as the template and the following oligo nucleotides 0702F and 0712R, presented as Sequence Number 1 and 2 respectively, were used as the primers. The amplified DNA fragment was ligated into pCR-Blunt (Invitrogen), a vector for cloning, according to standard method of the kit. The Escherichia coli HB101 (Toyobo) was transformed according to usual method and then selection of the transformants was performed on the LB agar medium containing 50 μg/mL of kanamycin. After the plasmid DNA was extracted and purified from the one of the transformants, amplifying of the DNA fragment coding for human SGLT2 was performed by the PCR reaction, in which the following oligo nucleotides 0714F and 0715R, presented as Sequence Number 3 and 4 respectively, were used as the primers. The amplified DNA fragment was digested with restriction enzymes, Xho I and Hind III, and then purified with Wizard Purification System (Promega). This purified DNA fragment was inserted at the corresponding restriction sites of pcDNA3.1 (−) Myc/His-B (Invitrogen), a vector for expressing of fusion protein. The Escherichia coli HB101 was transformed according to usual method and then selection of the transformant was performed on the LB agar medium containing 100 μg/mL of ampicillin. After the plasmid DNA was extracted and purified from this transformant, the base sequence of the DNA fragment inserted at the multi-cloning sites of pcDNA3.1 (−) Myc/His-B was analyzed. […] Sequentially, a clone in which valine is substituted for the isoleucine-433 was obtained. This plasmid vector expressing human SGLT2 in which the peptide presented as Sequence Number 5 is fused to the carboxyl terminal alanine residue was designated KL29.
2) Preparation of the Cells Expressing Transiently Human SGLT2
KL29, the plasmid coding human SGLT2, was transfected into COS-7 cells (RIKEN CELL BANK RCB0539) by electroporation. Electroporation was performed with GENE PULSER II (Bio-Rad Laboratories) under the condition: 0.290 kV, 975 μF, 2×10^6 cells of COS-7 cell and 20 μg of KL29 in 500 μL of OPTI-MEM I medium (Gibco-BRL: LIFE TECHNOLOGIES) in the 0.4 cm type cuvette. After the gene transfer, the cells were harvested by centrifugation and resuspended with OPTI-MEM I medium (1 mL/cuvette). To each well in 96-wells plate, 125 μL of this cell suspension was added. After overnight culture at 37° C. under 5% CO2, 125 μL of DMEM medium which is containing 10% of fetal bovine serum (Sanko Jyunyaku), 100 units/mL sodium penicillin G (Gibco-BRL: LIFE TECHNOLOGIES), 100 μg/mL streptomycin sulfate (Gibco-BRL: LIFE TECHNOLOGIES) was added to each well. After a culture until the following day, these cells were used for the measurement of the inhibitory activity against the uptake of methyl-α-D-glucopyranoside.
3) Measurement of the Inhibitory Activity Against the Uptake of methyl-α-D-glucopyranoside […]

[2] = system: SD rats; assay: Assay for the facilitatory effect on urinary glucose excretion; assay type: in vivo, rat; settings: male SD rats, oral glucose 2 g/kg, urine collected 24 hours
Method: Assay for the Facilitatory Effect on Urinary Glucose Excretion
As experimental animals, overnight fasted SD rats (Japan SLC. Inc., male, 7 weeks of age, 180-220 g) were used. Ten mg of a test compound was suspended or dissolved in 300 μL of ethanol and dissolved by adding 1.2 mL of polyethylene glycol 400 and 1.5 mL of saline to prepare a 3.3 mg/mL solution. A portion of this solution was diluted with a mixture (saline:polyethylene glycol 400:ethanol=5:4:1) to prepare 3.3, 0.33 and 0.033 mg/mL solution. After body weights of the rats were measured, the solution of test compound was intravenously injected to the tail vein at a dose of 3 mL/kg (10, 1, 0.1 mg/kg). For control, only a mixture (saline:polyethylene glycol 400:ethanol=5:4:1) was intravenously injected to the tail vein at a dose of 3 mL/kg. Immediately after intravenous injection to the tail vein, 200 g/L of aqueous glucose solution was orally administered to the rats at a dose of 10 mL/kg (2 g/kg). The intravenous injection to the tail vein was performed with 26 G injection needle and 1 mL syringe. The oral administration was performed with gastric tube for rat and 2.5 mL syringe. The head count in each group was 3. Collection of urine was performed in metabolic cage after the administration of glucose was finished. The sampling time for collection of urine was 24 hours after the administration of glucose. After the collection of urine was finished, the urine volume was recorded and the urinary glucose concentration was measured. The glucose concentration was measured with a kit for laboratory test: Glucose B-Test WAKO (Wako Pure Chemical Industries, Ltd.). The amount of urinary glucose excretion during 24 hours per 200 g of body weight was calculated from the urine volume, urinary glucose concentration and body weight.

[3] = system: ICR mice; assay: Acute toxicity test; assay type: in vivo; settings: male ICR mice, 300 mg/kg subcutaneous, 5 animals in each group, observation for 24 hours
Method: A mixture (saline:polyethylene glycol 400:ethanol=5:4:1) was added to a test compound to prepare 30 mg/mL solution. As experimental animals, 5 week old male ICR mice (CLEA JAPAN, INC. 29-35 g, 5 animals in each group), which were fasted for 4 hours, were used. The above solution was subcutaneously administered at a dose of 10 mL/kg (300 mg/kg) to the above experimental animals and then observation for 24 hours was performed.

| Structure (SMILES) | IC50 [1] [nM] | Amount of Urinary Glucose Excretion ([2]; 0.1 mg/kg intravenous) | Amount of Urinary Glucose Excretion ([2]; 1 mg/kg intravenous) | Amount of Urinary Glucose Excretion ([2]; 10 mg/kg intravenous) | Death number [3] |
| --- | --- | --- | --- | --- | --- |
| OC/C=C/c1ccc(Cc2ccccc2O[C@@H]2O[C@H](CO)[C@@H](O)[C@H](O)[C@H]2O)cc1 [Example 19, (E)-2-[4-(3-hydroxy-1-prop-1-ene-1-yl)benzyl]phenyl β-D-glucopyranoside] | 120 |  |  |  |  |
| CCc1ccc(Cc2ccc(N)cc2O[C@@H]2O[C@H](CO)[C@@H](O)[C@H](O)[C@H]2O)cc1 [Example 29, 5-Amino-2-(4-ethylbenzyl)phenyl β-D-glucopyranoside] | 10 |  |  |  |  |
| Cc1cc(C)c(Cc2ccc(CCCO)cc2)c(O[C@@H]2O[C@H](CO)[C@@H](O)[C@H](O)[C@H]2O)c1 [Example 30, 2-[4-(3-Hydroxypropyl)benzyl]-3,5-dimethylphenyl β-D-glucopyranoside] | 30 |  |  |  |  |
| Cc1cc(C)c(Cc2ccc(CCO)cc2)c(O[C@@H]2O[C@H](CO)[C@@H](O)[C@H](O)[C@H]2O)c1 [Example 31, 2-[4-(2-Hydroxyethyl)benzyl]-3,5-dimethylphenyl β-D-glucopyranoside] | 59 |  |  |  |  |
| COc1ccc(Cc2c(C)cc(C)cc2O[C@@H]2O[C@H](CO)[C@@H](O)[C@H](O)[C@H]2O)cc1 [Example 37, 2-(4-Methoxybenzyl)-3,5-dimethylphenyl β-D-glucopyranoside] | 290 | 15 mg/24 hours/200 g body weight | 125 mg/24 hours/200 g body weight | 288 mg/24 hours/200 g body weight | 0/5 |
